Measurements taken from patent publication US20200085789A1, “USE OF A PROTEASOME INHIBITOR FOR THE TREATMENT OF CENTRAL NERVOUS SYSTEM (CNS) CANCERS” (Celgene International II Sàrl, priority 2017, published 2020).

Assay: Adverse events and dose-limiting toxicity (NCI-CTCAE v 4.03), MRZ ± BEV in recurrent grade IV malignant glioma patients
Assay type: in vivo, human
Text: An adverse event (AE) is any noxious, unintended, or untoward medical occurrence that may appear or worsen in a subject during the course of a study. […] Any worsening (i.e., any clinically significant adverse change in the frequency or intensity of a pre-existing condition) should be considered an AE.
The severity/intensity of AEs will be graded based upon the subject's symptoms according to the current active minor version of the Common Terminology Criteria for Adverse Events ( ).

[1] = MRZ 0.7 mg/m^2 + BEV, Cohort 2 (N = 3)
[2] = MRZ 0.8 mg/m^2 + BEV, Cohorts 3 & 4 (N = 27)
[3] = MRZ 0.8 mg/m^2, + BEV N = 27, Monotherapy N = 30
[4] = MRZ 0.8 mg/m^2 Monotherapy (N = 30)
[5] = treated with MRZ 0.8 mg/m^2 + BEV (N = 27)

## C[C@@]12OC(=O)[C@]1([C@@H](O)[C@@H]1C=CCCC1)NC(=O)[C@@H]2CCCl [MRZ, marizomib]
[1]
  Grade ≥3 Ataxia related to the labelled drug, patients: 0
  Grade ≥3 Confusional State related to the labelled drug, patients: 0
  Grade ≥3 Delusion related to the labelled drug, patients: 0
  Grade ≥3 Dyspnea related to the labelled drug, patients: 0
  Grade ≥3 Embolism related to the labelled drug, patients: 0
  Grade ≥3 Fall related to the labelled drug, patients: 0
  Grade ≥3 Fatigue related to the labelled drug, patients: 0
  Grade ≥3 Hallucination related to the labelled drug, patients: 0
  Grade ≥3 Headache related to the labelled drug, patients: 0
  Grade ≥3 Hypertension related to the labelled drug, patients: 0
  Grade ≥3 Hyponatremia related to the labelled drug, patients: 0
  Grade ≥3 Insomnia related to the labelled drug, patients: 0
  Grade ≥3 Intracranial Hemorrhage related to the labelled drug, patients: 0
  Grade ≥3 Optic Nerve Disorder related to the labelled drug, patients: 0
  Grade ≥3 Proteinuria related to the labelled drug, patients: 0
[2]
  Grade ≥3 Ataxia related to the labelled drug, patients: 1
  Grade ≥3 Confusional State related to the labelled drug, patients: 0
  Grade ≥3 Delusion related to the labelled drug, patients: 1
  Grade ≥3 Dyspnea related to the labelled drug, patients: 1
  Grade ≥3 Embolism related to the labelled drug, patients: 0
  Grade ≥3 Fall related to the labelled drug, patients: 1
  Grade ≥3 Fatigue related to the labelled drug, patients: 1
  Grade ≥3 Hallucination related to the labelled drug, patients: 1
  Grade ≥3 Headache related to the labelled drug, patients: 3
  Grade ≥3 Hypertension related to the labelled drug, patients: 0
  Grade ≥3 Hyponatremia related to the labelled drug, patients: 1
  Grade ≥3 Insomnia related to the labelled drug, patients: 1
  Grade ≥3 Intracranial Hemorrhage related to the labelled drug, patients: 0
  Grade ≥3 Optic Nerve Disorder related to the labelled drug, patients: 0
  Grade ≥3 Proteinuria related to the labelled drug, patients: 0
[3]
  Anaemia: (20.0%)
  Anaemia, patients: 6
  Ataxia: (20.0%)
  Ataxia, patients: 6
  Confusional state: (23.3%)
  Confusional state, patients: 7
  Constipation: (30.0%)
  Constipation, patients: 9
  Diarrhoea: (23.3%)
  Diarrhoea, patients: 7
  Dizziness: (16.7%)
  Dizziness, patients: 5
  Dysarthria: (16.7%)
  Dysarthria, patients: 5
  Dysphonia: (3.3%)
  Dysphonia, patients: 1
  Epistaxis: (6.7%)
  Epistaxis, patients: 2
  Fall: (13.3%)
  Fall, patients: 4
  Fatigue: (63.3%)
  Fatigue, patients: 19
  Hallucination: (40.0%)
  Hallucination, patients: 12
  Headache: (40.0%)
  Headache, patients: 12
  Hyperglycaemia: (27.6%)
  Hyperglycaemia, patients: 8
  Hypertension: (13.3%)
  Hypertension, patients: 4
  Hypokalemia: (27.6%)
  Hypokalemia, patients: 8
  Infusion site pain: (10.0%)
  Infusion site pain, patients: 3
  Insomnia: (46.7%)
  Insomnia, patients: 14
  Nausea: (36.7%)
  Nausea, patients: 11
  Platelet count decreased: (23.3%)
  Platelet count decreased, patients: 7
  Vomiting: (30.0%)
  Vomiting, patients: 9
[4]
  Anaemia MRZ Related: (16.7%
  Anaemia MRZ Related, patients: 5
  Ataxia MRZ Related: (16.7%)
  Ataxia MRZ Related, patients: 5
  Confusional state MRZ Related: (20.0%)
  Confusional state MRZ Related, patients: 6
  Constipation MRZ Related: (20.0%)
  Constipation MRZ Related, patients: 6
  Diarrhoea MRZ Related: (23.3) %
  Diarrhoea MRZ Related, patients: 7
  Dizziness MRZ Related: (10.0%)
  Dizziness MRZ Related, patients: 3
  Dysphonia MRZ Related, patients: 0
  Epistaxis MRZ Related: (3.3%)
  Epistaxis MRZ Related, patients: 1
  Fall MRZ Related: (3.3%)
  Fall MRZ Related, patients: 1
  Fatigue MRZ Related: (60.0%)
  Fatigue MRZ Related, patients: 18
  Hallucination MRZ Related: (36.7%)
  Hallucination MRZ Related, patients: 11
  Headache MRZ Related: (36.7%)
  Headache MRZ Related, patients: 11
  Hypertension MRZ Related: 93.3%)
  Hypertension MRZ Related, patients: 1
  Infusion site pain MRZ Related: (6.7%)
  Infusion site pain MRZ Related, patients: 2
  Muscular weakness MRZ Related, patients: 0
  Nausea MRZ Related: (30.0%)
  Nausea MRZ Related, patients: 9
  Platelet count decreased MRZ Related, patients: 0
  Stomatitis MRZ Related, patients: 0
  Upper-airway cough syndrome MRZ Related, patients: 0
  Vomiting MRZ Related: (23.3) %
  Vomiting MRZ Related, patients: 7
Part 1 N = 36, Part 2 N = 30
  Anemia: patients, Total: 6
  Anemia: patients, worst Grade 1: 5
  Anemia: patients, worst Grade 2: 1
  Ataxia: patients, Total: 8
  Ataxia: patients, worst Grade 1: 3
  Ataxia: patients, worst Grade 2: 5
  Confusional State: patients, Total: 7
  Confusional State: patients, worst Grade 1: 3
  Confusional State: patients, worst Grade 2: 4
  Constipation: patients, Total: 10
  Constipation: patients, worst Grade 1: 10
  Diarrhea: patients, Total: 7
  Diarrhea: patients, worst Grade 1: 6
  Diarrhea: patients, worst Grade 3: 1
  Dizziness: patients, Total: 5
  Dizziness: patients, worst Grade 1: 4
  Dizziness: patients, worst Grade 2: 1
  Dysphonia: patients, Total: 1
  Dysphonia: patients, worst Grade 1: 1
  Epistaxis: patients, Total: 2
  Epistaxis: patients, worst Grade 1: 2
  Fall: patients, Total: 4
  Fall: patients, worst Grade 1: 3
  Fall: patients, worst Grade 2: 1
  Fatigue: patients, Total: 20
  Fatigue: patients, worst Grade 1: 8
  Fatigue: patients, worst Grade 2: 11
  Fatigue: patients, worst Grade 3: 2
  Hallucination: patients, Total: 12
  Hallucination: patients, worst Grade 1: 6
  Hallucination: patients, worst Grade 2: 4
  Hallucination: patients, worst Grade 3: 1
  Hallucination: patients, worst Grade 4: 1
  Headache: patients, Total: 14
  Headache: patients, worst Grade 1: 10
  Headache: patients, worst Grade 2: 3
  Headache: patients, worst Grade 3: 1
  Hyperglycemia: patients, Total: 7
  Hyperglycemia: patients, worst Grade 1: 2
  Hyperglycemia: patients, worst Grade 2: 4
  Hyperglycemia: patients, worst Grade 3: 1−
  Hypertension: patients, Total: 4
  Hypertension: patients, worst Grade 1: 1
  Hypertension: patients, worst Grade 2: 1
  Hypertension: patients, worst Grade 3: 2
  Hypokalemia: patients, Total: 9
  Hypokalemia: patients, worst Grade 1: 7
  Hypokalemia: patients, worst Grade 2: 2
  Infusion Site Reaction (includes edema, pain, phlebitis, redness): patients, Total: 5
  Infusion Site Reaction: patients, worst Grade 1: 3
  Infusion Site Reaction: patients, worst Grade 2: 2
  Insomnia: patients, Total: 1.
  Insomnia: patients, worst Grade 1: 7
  Insomnia: patients, worst Grade 2: 5
  Insomnia: patients, worst Grade 3: 1
  Nausea: patients, Total: 11
  Nausea: patients, worst Grade 1: 7
  Nausea: patients, worst Grade 2: 2
  Nausea: patients, worst Grade 3: 2
  Platelet Count Decreased: patients, Total: 7
  Platelet Count Decreased: patients, worst Grade 1: 7
  Vomiting: patients, Total: 10
  Vomiting: patients, worst Grade 1: 8
  Vomiting: patients, worst Grade 3: 2
Phase 1
  marizomib-related adverse events ≥3: confusional state: 3
  marizomib-related adverse events ≥3: headache: 3
  patients with marizomib-related serious adverse events: Four
Phase 2 monotherapy
  Grade 4 serious adverse event (hallucination, MRZ-related): one
  treatment-related Grade ≥3 AEs in two or more patients: fatigue, hallucination, lethargy
Phase 2 monotherapy, listed as marizomib
  Grade 4 serious adverse event (hallucination, MRZ-related): One
Pts on MRZ+BEV
  Anaemia: # Patients, AE related to the labelled drug(s): 6
  Anxiety: # Patients, AE related to the labelled drug(s): 0
  Aphasia: # Patients, AE related to the labelled drug(s): 0
  Appendicitis Perforated: # Patients, AE related to the labelled drug(s): 0
  Asthenia: # Patients, AE related to the labelled drug(s): 0
  Ataxia: # Patients, AE related to the labelled drug(s): 6
  Confusional State: # Patients, AE related to the labelled drug(s): 6
  Constipation: # Patients, AE related to the labelled drug(s): 4
  Convulsion: # Patients, AE related to the labelled drug(s): 0
  Delusion: # Patients, AE related to the labelled drug(s): 1
  Depressed Level of Consciousness: # Patients, AE related to the labelled drug(s): 0
  Diarrhoea: # Patients, AE related to the labelled drug(s): 9
  Dizziness: # Patients, AE related to the labelled drug(s): 8
  Dysarthria: # Patients, AE related to the labelled drug(s): 1
  Dysphagia: # Patients, AE related to the labelled drug(s): 0
  Dysphonia: # Patients, AE related to the labelled drug(s): 0
  Dyspnoea: # Patients, AE related to the labelled drug(s): 0
  Ear Infection: # Patients, AE related to the labelled drug(s): 0
  Embolism: # Patients, AE related to the labelled drug(s): 0
  Epistaxis: # Patients, AE related to the labelled drug(s): 0
  Falls: # Patients, AE related to the labelled drug(s): 3
  Fatigue: # Patients, AE related to the labelled drug(s): 1
  Fracture of Femur: # Patients, AE related to the labelled drug(s): 0
  Haemorrhage Intracranial: # Patients, AE related to the labelled drug(s): 0
  Hallucination: # Patients, AE related to the labelled drug(s): 11
  Headache: # Patients, AE related to the labelled drug(s): 5
  Hemiparesis: # Patients, AE related to the labelled drug(s): 0
  Hyperglycemia: # Patients, AE related to the labelled drug(s): 0
  Hypertension: # Patients, AE related to the labelled drug(s): 0
  Hypokalemia: # Patients, AE related to the labelled drug(s): 0
  Hyponatremia: # Patients, AE related to the labelled drug(s): 1
  Hypotension: # Patients, AE related to the labelled drug(s): 0
  Infusion Site Pain: # Patients, AE related to the labelled drug(s): 6
  Insomnia: # Patients, AE related to the labelled drug(s): 1
  Lymphocyte Count Decreased: # Patients, AE related to the labelled drug(s): 0
  Muscular Weakness: # Patients, AE related to the labelled drug(s): 2
  Nausea: # Patients, AE related to the labelled drug(s): 19
  Optic Nerve Disorder: # Patients, AE related to the labelled drug(s): 0
  Pyramidal Tract Syndrome: # Patients, AE related to the labelled drug(s): 0
  Tumor Metastasis: # Patients, AE related to the labelled drug(s): 0
  Vision Blurred: # Patients, AE related to the labelled drug(s): 3
  Vomiting: # Patients, AE related to the labelled drug(s): 12
range
  time of onset of CNS adverse events: from the day of treatment to six days post-marizomib infusion
[5]
  Anaemia related to the labelled drug(s): (18.5%)
  Anaemia related to the labelled drug(s), patients: 5
  Ataxia related to the labelled drug(s): (25.9%)
  Ataxia related to the labelled drug(s), patients: 7
  Confusional state related to the labelled drug(s): (25.9%)
  Confusional state related to the labelled drug(s), patients: 7
  Constipation related to the labelled drug(s): (18.5%)
  Constipation related to the labelled drug(s), patients: 5
  Diarrhoea related to the labelled drug(s): (29.6%)
  Diarrhoea related to the labelled drug(s), patients: 8
  Dizziness related to the labelled drug(s): (29.6%)
  Dizziness related to the labelled drug(s), patients: 8
  Dysphonia related to the labelled drug(s): (3.7%)
  Dysphonia related to the labelled drug(s), patients: 1
  Epistaxis related to the labelled drug(s): (0.0%)
  Epistaxis related to the labelled drug(s), patients: 0
  Fall related to the labelled drug(s): (11.1%)
  Fall related to the labelled drug(s), patients: 3
  Fatigue related to the labelled drug(s): (70.4%)
  Fatigue related to the labelled drug(s), patients: 19
  Hallucination related to the labelled drug(s): (44.4%)
  Hallucination related to the labelled drug(s), patients: 12
  Headache related to the labelled drug(s): (44.4%)
  Headache related to the labelled drug(s), patients: 12
  Hypertension related to the labelled drug(s): (3.7%)
  Hypertension related to the labelled drug(s), patients: 1
  Infusion site pain related to the labelled drug(s): (14.8%)
  Infusion site pain related to the labelled drug(s), patients: 4
  Muscular weakness related to the labelled drug(s): (11.1%)
  Muscular weakness related to the labelled drug(s), patients: 3
  Nausea related to the labelled drug(s): (63.0%)
  Nausea related to the labelled drug(s), patients: 17
  Platelet count decreased related to the labelled drug(s): (7.4%)
  Platelet count decreased related to the labelled drug(s), patients: 2
  Stomatitis related to the labelled drug(s): (11.1%)
  Stomatitis related to the labelled drug(s), patients: 3
  Upper-airway cough syndrome related to the labelled drug(s): (0.0%)
  Upper-airway cough syndrome related to the labelled drug(s), patients: 0
  Vomiting related to the labelled drug(s): (55.6%)
  Vomiting related to the labelled drug(s), patients: 15
